Legend:
Format in all cases: functional
[1] = tested on: UO-31; experiment: Cytotoxicity against human UO31 cells assessed as cell growth at 1 uM after 48 hrs by sulforhodamine B assay relative to control; settings: UO-31, 48 h, read-out: Activity
[2] = tested on: A549; experiment: Cytotoxicity against human A549/ATCC cells assessed as cell growth at 100 uM after 48 hrs by sulforhodamine B assay relative to control; settings: A549, 48 h, read-out: Activity
[3] = tested on: TK-10; experiment: Cytotoxicity against human TK10 cells assessed as cell growth at 1 uM after 48 hrs by sulforhodamine B assay relative to control; settings: TK-10, 48 h, read-out: Activity
[4] = tested on: HCC 2998; experiment: Cytotoxicity against human HCC2998 cells assessed as cell growth at 0.01 uM after 48 hrs by sulforhodamine B assay relative to control; settings: HCC 2998, 48 h, read-out: Activity
[5] = tested on: BT-549; experiment: Cytotoxicity against human BT549 cells assessed as cell growth at 0.1 uM after 48 hrs by sulforhodamine B assay relative to control; settings: BT-549, 48 h, read-out: Activity
[6] = tested on: OVCAR-3; experiment: Cytotoxicity against human OVCAR3 cells assessed as cell growth at 10 uM after 48 hrs by sulforhodamine B assay relative to control; settings: OVCAR-3, 48 h, read-out: Activity
[7] = tested on: SK-MEL-5; experiment: Cytotoxicity against human SK-MEL-5 cells assessed as growth inhibition after 48 hrs by sulforhodamine B assay; settings: SK-MEL-5, 48 h
[8] = tested on: RXF 393; experiment: Cytotoxicity against human RXF393 cells assessed as cell growth at 100 uM after 48 hrs by sulforhodamine B assay relative to control; settings: RXF 393, 48 h, read-out: Activity
[9] = tested on: OVCAR-4; experiment: Cytotoxicity against human OVCAR4 cells assessed as cell growth at 0.01 uM after 48 hrs by sulforhodamine B assay relative to control; settings: OVCAR-4, 48 h, read-out: Activity
[10] = tested on: RPMI-8226; experiment: Cytotoxicity against human RPMI8226 cells assessed as cell growth at 0.1 uM after 48 hrs by sulforhodamine B assay relative to control; settings: RPMI-8226, 48 h, read-out: Activity
[11] = tested on: OVCAR-5; experiment: Cytotoxicity against human OVCAR5 cells assessed as cell growth at 0.1 uM after 48 hrs by sulforhodamine B assay relative to control; settings: OVCAR-5, 48 h, read-out: Activity
[12] = tested on: OVCAR-8; experiment: Cytotoxicity against human OVCAR8 cells assessed as cell growth at 0.1 uM after 48 hrs by sulforhodamine B assay relative to control; settings: OVCAR-8, 48 h, read-out: Activity
[13] = tested on: HCT-15; experiment: Cytotoxicity against human HCT15 cells assessed as cell growth at 0.01 uM after 48 hrs by sulforhodamine B assay relative to control; settings: HCT-15, 48 h, read-out: Activity
[14] = tested on: TK-10; experiment: Cytotoxicity against human TK10 cells assessed as cell growth at 0.01 uM after 48 hrs by sulforhodamine B assay relative to control; settings: TK-10, 48 h, read-out: Activity
[15] = tested on: OVCAR-5; experiment: Cytotoxicity against human OVCAR5 cells assessed as cell growth at 1 uM after 48 hrs by sulforhodamine B assay relative to control; settings: OVCAR-5, 48 h, read-out: Activity
[16] = tested on: UACC-62; experiment: Cytotoxicity against human UACC62 cells assessed as cell growth at 0.01 uM after 48 hrs by sulforhodamine B assay relative to control; settings: UACC-62, 48 h, read-out: Activity
[17] = tested on: COLO 205; experiment: Cytotoxicity against human COLO205 cells assessed as cell growth at 10 uM after 48 hrs by sulforhodamine B assay relative to control; settings: COLO 205, 48 h, read-out: Activity
[18] = tested on: SF-539; experiment: Cytotoxicity against human SF539 cells assessed as growth inhibition after 48 hrs by sulforhodamine B assay; settings: SF-539, 48 h
[19] = tested on: SK-OV-3; experiment: Cytotoxicity against human SKOV3 cells assessed as cell growth at 10 uM after 48 hrs by sulforhodamine B assay relative to control; settings: SK-OV-3, 48 h, read-out: Activity
[20] = tested on: NCI/ADR-RES; experiment: Cytotoxicity against human NCI/ADR-RES cells assessed as cell growth at 0.01 uM after 48 hrs by sulforhodamine B assay relative to control; settings: read-out: Activity
[21] = tested on: Hs-578T; experiment: Cytotoxicity against human Hs 578T cells assessed as cell growth at 10 uM after 48 hrs by sulforhodamine B assay relative to control; settings: read-out: Activity
[22] = tested on: SK-MEL-5; experiment: Cytotoxicity against human SK-MEL-5 cells assessed as cell growth at 1 uM after 48 hrs by sulforhodamine B assay relative to control; settings: SK-MEL-5, 48 h, read-out: Activity
[23] = tested on: K562; experiment: Cytotoxicity against human K562 cells assessed as cell growth at 10 uM after 48 hrs by sulforhodamine B assay relative to control; settings: K562, 48 h, read-out: Activity
[24] = tested on: A498; experiment: Cytotoxicity against human A498 cells assessed as cell growth at 10 uM after 48 hrs by sulforhodamine B assay relative to control; settings: A498, 48 h, read-out: Activity
[25] = tested on: OVCAR-3; experiment: Cytotoxicity against human OVCAR3 cells assessed as cell growth at 100 uM after 48 hrs by sulforhodamine B assay relative to control; settings: OVCAR-3, 48 h, read-out: Activity
[26] = tested on: MDA-MB-468; experiment: Cytotoxicity against human MDA-MB-468 cells assessed as cell growth at 1 uM after 48 hrs by sulforhodamine B assay relative to control; settings: MDA-MB-468, 48 h, read-out: Activity
[27] = tested on: NCI-H322M; experiment: Cytotoxicity against human NCI-H322M cells assessed as cell growth at 1 uM after 48 hrs by sulforhodamine B assay relative to control; settings: read-out: Activity
[28] = tested on: HL-60(TB); experiment: Cytotoxicity against human HL-60(TB) cells assessed as cell growth at 0.01 uM after 48 hrs by sulforhodamine B assay relative to control; settings: HL-60, 48 h, read-out: Activity
[29] = tested on: MOLT-4; experiment: Cytotoxicity against human MOLT4 cells assessed as cell growth at 0.1 uM after 48 hrs by sulforhodamine B assay relative to control; settings: MOLT-4, 48 h, read-out: Activity
[30] = tested on: SK-MEL-28; experiment: Cytotoxicity against human SK-MEL-28 cells assessed as cell growth at 1 uM after 48 hrs by sulforhodamine B assay relative to control; settings: SK-MEL-28, 48 h, read-out: Activity
[31] = tested on: MDA-MB-468; experiment: Cytotoxicity against human MDA-MB-468 cells assessed as cell growth at 10 uM after 48 hrs by sulforhodamine B assay relative to control; settings: MDA-MB-468, 48 h, read-out: Activity
[32] = tested on: OVCAR-8; experiment: Cytotoxicity against human OVCAR8 cells assessed as cell growth at 0.01 uM after 48 hrs by sulforhodamine B assay relative to control; settings: OVCAR-8, 48 h, read-out: Activity
[33] = tested on: IGROV-1; experiment: Cytotoxicity against human IGROV1 cells assessed as cell growth at 100 uM after 48 hrs by sulforhodamine B assay relative to control; settings: IGROV-1, 48 h, read-out: Activity
[34] = tested on: OVCAR-3; experiment: Cytotoxicity against human OVCAR3 cells assessed as cell growth at 1 uM after 48 hrs by sulforhodamine B assay relative to control; settings: OVCAR-3, 48 h, read-out: Activity
[35] = tested on: NCI-H23; experiment: Cytotoxicity against human NCI-H23 cells assessed as cell growth at 0.1 uM after 48 hrs by sulforhodamine B assay relative to control; settings: NCI-H23, 48 h, read-out: Activity

With `COc1cc(-c2cc(/C=C/C(=O)c3ccc(Cl)c(Cl)c3)[nH]n2)cc(OC)c1OC` as the compound, how does the growth at 1 µM [1] read?
Its growth at 1 µM is 81%.

And the growth at 100 µM [2]?
Its growth at 100 µM is 2%.

And the growth at 1 µM [3]?
Its growth at 1 µM is 93%.

And the growth at 0.01 µM [4]?
The growth at 0.01 µM was 96%.

And the growth at 0.1 µM [5]?
Its growth at 0.1 µM is 95%.

And the growth at 10 µM [6]?
The growth at 10 µM was 40%.

What about the LC50 (concentration killing 50% of cells) [7] of the same compound?
Its LC50 (concentration killing 50% of cells) is over 100 µM.

What about the TGI [7] of the same compound?
The TGI was 46.9 µM.

And the growth at 100 µM [8]?
The growth at 100 µM was -71%.

And the growth at 0.01 µM [9]?
The growth at 0.01 µM was 92%.

What about the growth at 0.1 µM [10] of the same compound?
Its growth at 0.1 µM is 95%.

And the growth at 0.1 µM [11]?
Its growth at 0.1 µM is 99%.

And the growth at 0.1 µM [12]?
Its growth at 0.1 µM is 97%.

What about the growth at 0.01 µM [13] of the same compound?
The growth at 0.01 µM was 69%.

And the growth at 0.01 µM [14]?
The growth at 0.01 µM was 90%.

And the growth at 1 µM [15]?
Its growth at 1 µM is 92%.

What about the growth at 0.01 µM [16] of the same compound?
Its growth at 0.01 µM is 97%.

What about the growth at 10 µM [17] of the same compound?
Its growth at 10 µM is 10%.

And the LC50 (concentration killing 50% of cells) [18]?
Its LC50 (concentration killing 50% of cells) is 57.8 µM.

And the TGI [18]?
The TGI was 18.7 µM.

What about the growth at 10 µM [19] of the same compound?
Its growth at 10 µM is 26%.

What about the growth at 0.01 µM [20] of the same compound?
The growth at 0.01 µM was 100%.

And the growth at 10 µM [21]?
Its growth at 10 µM is 63%.

What about the growth at 1 µM [22] of the same compound?
The growth at 1 µM was 94%.

What about the growth at 10 µM [23] of the same compound?
Its growth at 10 µM is 28%.

And the growth at 10 µM [24]?
The growth at 10 µM was 43%.

And the growth at 100 µM [25]?
The growth at 100 µM was -30%.

And the growth at 1 µM [26]?
Its growth at 1 µM is 76%.

What about the growth at 1 µM [27] of the same compound?
Its growth at 1 µM is 94%.

And the growth at 0.01 µM [28]?
Its growth at 0.01 µM is 105%.

And the growth at 0.1 µM [29]?
The growth at 0.1 µM was 102%.

And the growth at 1 µM [30]?
The growth at 1 µM was 114%.

And the growth at 10 µM [31]?
Its growth at 10 µM is -13%.

And the growth at 0.01 µM [32]?
Its growth at 0.01 µM is 94%.

What about the growth at 100 µM [33] of the same compound?
The growth at 100 µM was 9%.

And the growth at 1 µM [34]?
Its growth at 1 µM is 102%.

What about the growth at 0.1 µM [35] of the same compound?
Its growth at 0.1 µM is 92%.
